biological target: Cav2.3 (Homo sapiens, UniProt Q15878); assay: Human Cav2.3 channel calcium-influx assay; assay type: cell-based; settings: HEK-293 T-Rex/Kir2.1/Cav2.3e-β4-α2δ1 cells, Fluo8 fluorescence, without pluronic acid; read-out: Cav2.3 (pIC50) (converted)
Description: HEK-293 T-Rex cells were transfected with pcDNA3.1-Kir2.1 to generate a stable cell line. After antibiotic selection, the obtained stable pools were analysed using FLIPR^TETRA (membrane potential assay), and a limiting dilution was performed and a HEK-293 T-Rex/Kir2.1 clone was selected. The clone was transfected with pcDNA3.1-Cav2.3e and pBud-Cav-β4-α2δ1 to generate a stable cell line where the Cav2.3e expression is inducible. After antibiotic selection, functional clone pool analysis and two successive limiting dilutions, the final clone underwent a qPCR analysis and a biophysical and pharmacological validation using patch-clamp.
A compound plate, containing 10 test compounds in eight-points dose response with n=4, was prepared. Test compounds dose response curves were prepared in automated fashion in 100% DMSO at CyBio Felix and starting from a stock solution in 100% DMSO; a defined volume was serially moved into destination wells pre-filled with the desired DMSO volume; stock solution concentration volumes were dependent on the final compounds concentrations to be tested and the final DMSO content used in the assay. For the assay test compounds dose response curves ranged from 30 μM and half log dilution with 0.3% final DMSO. In order to obtain the 8-points dose response curve all the concentrations were created by starting from a 10 mM DMSO stock solution and then moving 9.5 μL into a destination well pre-filled with 20.5 μL of 100% DMSO and repeating this step seven times. This initial step was done into 96 MTP plates, 10 compounds/plate. One 384 MTP was then reformatted to contain all the 10 compounds at 8 concentrations, quadruplicate data points. This so obtained 384 MTP compound plate served as source plate in a “mother to child” process with a CyBi®-Well dispenser in which 0.7 μL of compounds were moved into a destination plate pre-filled with 57.6 μL of Tyrode's buffer 0 mM K+, thus obtaining 4× concentrated compounds solution. In columns 1-2 and 23-24 the control wells were added. Both “source” compound plate and “destination” compound plate were barcoded and a relationship between the two plates was thus generated.
The day before the experiment, cells were detached by gentle wash with DPBS, followed by 5 min incubation at 37° C. with Trypsin solution. Detached cells were diluted with OptiMEM+Doxycycline at 0.2 μg/mL, counted and plated in Poly-D-Lysine coated black/clear bottom (15.000 c/well in 20 μl/well) by the use of a MATRIX WellMate dispenser. Plates were placed into a humidified incubator at 37° C. with 5% CO2 until the experimental day. 24 h after seeding 10 μL/well of 1.5× Fluo8 NW dye solution prepared in Tyrode's buffer 0 mM K^+ were added on top of the seeding medium. Cell plates were incubated for 40-60 min at RT in the dark. We then Injected off-line 10 μL/well of test compounds and controls 4× concentrated in Tyrode's Buffer 0 mM K+ with the CyBi®-Well instrument. Cell plates were incubated 3 minutes at RT. Finally, we injected 20 μL/well of 3× concentrated activator solution (K20-Na130-Ca2 buffer: 20 mM KCl, 130 mM NaCl, 2 mM CaCl2, 10 mM HEPES, 10 mM Glucose, final concentrations, prepared starting from “KO-Na150-Ca2” and “K150-Na0-Ca2” buffers) at FDSS7000EX instrument and read emitted fluorescence for 130 seconds.
Data analysis was performed with Genedata Screener® software and reported compounds activity as % effect in relation to the normalization standards. The Kinetic Response Value (KRV) is calculated as follows:
KRV=Maximal fluorescence recorded from second 5 to second 130 minus baseline fluorescence, computed as average from second 1 to second 2, of the kinetic trace. The KRV was normalized versus Neutral Controls and Inhibitor Controls in order to obtain the Activity[%] for each well. […] Therefore, the compound activity values were scaled (based on the two references) to a common range (two-point normalization). […]

Sequence of Cav2.3 (Q15878 1-747 limits assumed): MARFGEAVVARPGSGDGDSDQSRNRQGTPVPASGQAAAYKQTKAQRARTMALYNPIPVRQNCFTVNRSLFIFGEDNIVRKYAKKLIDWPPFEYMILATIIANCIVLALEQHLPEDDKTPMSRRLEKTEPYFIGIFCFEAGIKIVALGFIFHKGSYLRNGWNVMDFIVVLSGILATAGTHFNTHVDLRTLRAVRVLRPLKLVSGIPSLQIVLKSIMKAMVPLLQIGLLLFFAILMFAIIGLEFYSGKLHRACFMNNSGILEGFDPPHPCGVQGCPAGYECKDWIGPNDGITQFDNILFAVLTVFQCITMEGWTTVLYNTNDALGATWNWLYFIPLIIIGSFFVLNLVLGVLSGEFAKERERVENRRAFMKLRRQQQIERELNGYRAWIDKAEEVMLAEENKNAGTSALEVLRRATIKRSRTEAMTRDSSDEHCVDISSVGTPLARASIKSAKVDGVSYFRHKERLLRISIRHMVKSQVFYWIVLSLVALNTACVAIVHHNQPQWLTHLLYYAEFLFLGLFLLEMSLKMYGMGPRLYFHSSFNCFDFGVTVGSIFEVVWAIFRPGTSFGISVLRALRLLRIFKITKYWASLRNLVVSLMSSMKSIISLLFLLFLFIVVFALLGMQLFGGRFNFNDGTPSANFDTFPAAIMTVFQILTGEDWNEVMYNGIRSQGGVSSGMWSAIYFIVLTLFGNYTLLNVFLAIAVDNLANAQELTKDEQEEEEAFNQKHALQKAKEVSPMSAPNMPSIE
Sequence of Cav2.3 (Q15878 1126-2313 limits assumed): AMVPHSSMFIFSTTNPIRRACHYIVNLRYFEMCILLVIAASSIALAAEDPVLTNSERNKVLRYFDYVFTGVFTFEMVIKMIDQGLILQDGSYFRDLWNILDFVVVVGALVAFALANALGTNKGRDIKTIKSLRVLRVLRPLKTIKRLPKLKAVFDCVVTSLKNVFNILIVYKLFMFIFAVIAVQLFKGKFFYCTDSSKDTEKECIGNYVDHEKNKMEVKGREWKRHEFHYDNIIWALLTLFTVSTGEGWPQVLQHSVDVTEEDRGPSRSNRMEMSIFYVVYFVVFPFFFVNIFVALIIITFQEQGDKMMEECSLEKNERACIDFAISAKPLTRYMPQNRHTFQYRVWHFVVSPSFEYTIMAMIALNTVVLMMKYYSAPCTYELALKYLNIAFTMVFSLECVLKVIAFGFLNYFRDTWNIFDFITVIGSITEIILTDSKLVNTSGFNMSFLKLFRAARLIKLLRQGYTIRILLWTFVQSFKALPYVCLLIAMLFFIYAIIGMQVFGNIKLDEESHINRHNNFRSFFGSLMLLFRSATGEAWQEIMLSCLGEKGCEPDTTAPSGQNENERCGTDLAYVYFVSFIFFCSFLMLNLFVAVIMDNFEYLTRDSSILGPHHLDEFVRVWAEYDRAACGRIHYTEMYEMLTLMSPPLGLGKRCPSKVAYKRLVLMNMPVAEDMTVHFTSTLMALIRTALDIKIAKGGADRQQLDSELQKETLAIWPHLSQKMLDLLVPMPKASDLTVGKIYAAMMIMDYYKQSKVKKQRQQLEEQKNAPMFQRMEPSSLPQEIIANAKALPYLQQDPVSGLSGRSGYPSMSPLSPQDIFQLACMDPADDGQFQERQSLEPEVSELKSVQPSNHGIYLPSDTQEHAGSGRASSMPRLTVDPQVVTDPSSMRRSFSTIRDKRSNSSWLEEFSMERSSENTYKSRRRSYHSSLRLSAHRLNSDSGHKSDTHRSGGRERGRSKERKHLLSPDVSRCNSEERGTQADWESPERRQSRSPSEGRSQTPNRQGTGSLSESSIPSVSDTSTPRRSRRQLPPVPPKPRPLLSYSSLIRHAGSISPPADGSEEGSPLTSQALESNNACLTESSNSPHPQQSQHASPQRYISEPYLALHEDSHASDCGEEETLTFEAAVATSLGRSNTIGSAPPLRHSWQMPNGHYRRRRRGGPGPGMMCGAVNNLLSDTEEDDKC

Row | SMILES | IC50 [µM]
1 | CC1CC2(CCC2)CN1S(=O)(=O)c1cccs1 (stereo not drawn) [Example 102, 7-Methyl-6-(thiophen-2-ylsulfonyl)-6-azaspiro[3.4]octane] | 2.69
2 | CCC1CC2(CCCC2)CN1S(=O)(=O)c1ccc2c(c1)CN(C(=O)C(F)(F)F)CC2 (stereo not drawn) [Example 101, 1-(7-((3-Ethyl-2-azaspiro[4.4]nonan-2-yl)sulfonyl)-3,4-dihydroisoquinolin-2(1H)-yl)-2,2,2-trifluoroethan-1-one] | 2.45
3 | CCC1CC2(CCC2)CN1S(=O)(=O)c1ccnc(OC)c1 (stereo not drawn) [Example 87, 7-Ethyl-6-((2-methoxypyridin-4-yl)sulfonyl)-6-azaspiro[3.4]octane] | 2
4 | CC1CC2(CCC2)CN1S(=O)(=O)c1cc2oc(=O)[nH]c2cc1Cl (stereo not drawn) [Example 56, 5-Chloro-6-((7-methyl-6-azaspiro[3.4]octan-6-yl)sulfonyl)benzo[d]oxazol-2(3H)-one] | 8.32
5 | CCC1CC2(CCC2)CN1S(=O)(=O)c1ccnc(C)c1 (stereo not drawn) [Example 92, 7-Ethyl-6-((2-methylpyridin-4-yl)sulfonyl)-6-azaspiro[3.4]octane] | 2.45
6 | CC1CC2(CCC2)CN1S(=O)(=O)c1cccs1 (single isomer, unassigned) [Example 103, 7-Methyl-6-(thiophen-2-ylsulfonyl)-6-azaspiro[3.4]octane] | 8.32
7 | CCC1CC2(CCC2)CN1S(=O)(=O)c1cccs1 (single isomer, unassigned) [Example 70, 7-Ethyl-6-(thiophen-2-ylsulfonyl)-6-azaspiro[3.4]octane] | 9.55
8 | CCC1CC2(CCC2)CN1S(=O)(=O)c1cccs1 (stereo not drawn) [Example 69, 7-Ethyl-6-(thiophen-2-ylsulfonyl)-6-azaspiro[3.4]octane] | 2.51
9 | CC1CC2(CCC2)CN1S(=O)(=O)c1ccc2c(c1)CN(C(=O)C(F)(F)F)CC2 (single isomer, unassigned) [Example 20, 2,2,2-trifluoro-1-(7-((7-methyl-6-azaspiro[3.4]octan-6-yl)sulfonyl)-3,4-dihydroisoquinolin-2(1H)-yl)ethan-1-one] | 4.27
10 | CCc1ncsc1S(=O)(=O)N1CC2(CCC2)CC1C (stereo not drawn) [Example 64, 4-Ethyl-5-((7-methyl-6-azaspiro[3.4]octan-6-yl)sulfonyl)thiazole] | 3.72
11 | CC1CC2(CCC2)CN1S(=O)(=O)c1ccc2c(c1)CCN(Cc1ccccc1)C2 (stereo not drawn) [Example 25, 2-Benzyl-6-((7-methyl-6-azaspiro[3.4]octan-6-yl)sulfonyl)-1,2,3,4-tetrahydroisoquinoline] | 2.95
12 | CCC1CC2(CCCC2)CN1S(=O)(=O)c1cccs1 (single isomer, unassigned) [Example 99, 3-ethyl-2-(thiophen-2-ylsulfonyl)-2-azaspiro[4.4]nonane] | 1.91
13 | CC1CC2(CCC2)CN1S(=O)(=O)c1ccc(C#N)s1 (single isomer, unassigned) [Example 9, 5-((7-Methyl-6-azaspiro[3.4]octan-6-yl)sulfonyl)thiophene-2-carbonitrile] | 7.94
14 | Cc1nc(C)c(S(=O)(=O)N2CC3(CCC3)CC2C)s1 (stereo not drawn) [Example 105, 2,4-Dimethyl-5-((7-methyl-6-azaspiro[3.4]octan-6-yl)sulfonyl)thiazole] | 4.57
15 | CC(C)C(=O)N1Cc2ccc(S(=O)(=O)N3CC4(CCC4)CC3C)cc2C1 (stereo not drawn) [Example 52, 2-methyl-1-(5-((7-methyl-6-azaspiro[3.4]octan-6-yl)sulfonyl)isoindolin-2-yl)propan-1-one] | 2
16 | CCC1CC2(CCCC2)CN1S(=O)(=O)c1cccs1 (single isomer, unassigned) [Example 98, 3-Ethyl-2-(thiophen-2-ylsulfonyl)-2-azaspiro[4.4]nonane] | 14.5
17 | CC1CC2(CCC2)CN1S(=O)(=O)c1cnccn1 (stereo not drawn) [Example 39, 7-methyl-6-(pyrazin-2-ylsulfonyl)-6-azaspiro[3.4]octane] | 10.7
18 | CC1CC2(CCC2)CN1S(=O)(=O)c1cncc(C#N)c1 (stereo not drawn) [Example 111, 5-((7-methyl-6-azaspiro[3.4]octan-6-yl)sulfonyl)nicotinonitrile] | 1.95
19 | CC1CC2(CCC2)CN1S(=O)(=O)c1cccc2c1OC(F)(F)O2 (stereo not drawn) [Example 41, 6-((2,2-Difluorobenzo[d][1,3]dioxol-4-yl)sulfonyl)-7-methyl-6-azaspiro[3.4]octane] | 8.32
20 | CCC1CC2(CCC2)CN1S(=O)(=O)c1ccco1 (stereo not drawn) [Example 72, 7-Ethyl-6-(furan-2-ylsulfonyl)-6-azaspiro[3.4]octane] | 4.37
21 | CCC1CC2(CCC2)CN1S(=O)(=O)c1ccc2c(c1)CN(C(=O)C(C)C)CC2 (stereo not drawn) [Example 34, 1-(7-((7-Ethyl-6-azaspiro[3.4]octan-6-yl)sulfonyl)-3,4-dihydroisoquinolin-2(1H)-yl)-2-methylpropan-1-one] | 1.1

Other lines, results leading:

Row | IC50 [µM] | SMILES
22 | 4.79 | CC1CC2(CCC2)CN1S(=O)(=O)c1ccc2ccoc2c1 (single isomer, unassigned) [Example 16, 6-(Benzofuran-6-ylsulfonyl)-7-methyl-6-azaspiro[3.4]octane]
23 | 11.2 | CC1CC2(CCC2)CN1S(=O)(=O)c1ccc2[nH]c(=O)[nH]c2c1 (stereo not drawn) [Example 59, 5-((7-Methyl-6-azaspiro[3.4]octan-6-yl)sulfonyl)-1,3-dihydro-2H-benzo[d]imidazol-2-one]
24 | 4.07 | Cc1ccc(S(=O)(=O)N2CC3(CCC3)CC2C)o1 (single isomer, unassigned) [Example 55, 7-methyl-6-((5-methylfuran-2-yl)sulfonyl)-6-azaspiro[3.4]octane]
25 | 9.77 | CC1CC2(CCC2)CN1S(=O)(=O)c1nc2ccccc2s1 (stereo not drawn) [Example 67, 2-((7-Methyl-6-azaspiro [3.4]octan-6-yl)sulfonyl)benzo[d]thiazole]
26 | 6.31 | CC1CC2(CCC2)CN1S(=O)(=O)c1ccc2ccccc2n1 (stereo not drawn) [Example 79, 2-((7-Methyl-6-azaspiro[3.4]octan-6-yl)sulfonyl)quinoline]
27 | 2.19 | CC1CC2(CCC2)CN1S(=O)(=O)c1ccc2c(c1)OCCO2 (single isomer, unassigned) [Example 7, 6-((2,3-dihydrobenzo[b][1,4]dioxin-6-yl)sulfonyl)-7-methyl-6-azaspiro[3.4]octane]
28 | 4.57 | Cc1ccnc2cc(S(=O)(=O)N3CC4(CCC4)CC3C)ccc12 (single isomer, unassigned) [Example 81, 4-Methyl-7-((7-methyl-6-azaspiro[3.4]octan-6-yl)sulfonyl)quinoline]
29 | 11.5 | CC1CC2(CCC2)CN1S(=O)(=O)c1ccc(Cl)s1 (stereo not drawn) [Example 108, 6-((5-Chlorothiophen-2-yl)sulfonyl)-7-methyl-6-azaspiro[3.4]octane]
30 | 13.8 | Cc1ccc(S(=O)(=O)N2CC3(CCC3)CC2C)s1 (single isomer, unassigned) [Example 77, 7-Methyl-6-((5-methylthiophen-2-yl)sulfonyl)-6-azaspiro[3.4]octane]
